Experimental data: publication doi:10.1101/2023.11.24.568596v1 (biorxiv, 2023)

Assays:
Conditions in all cases: binder
DRAK1 = target: T1, DRAK1 (Homo sapiens, UniProt Q9UEE5)
T1 sequence (Q9UEE5 1-414): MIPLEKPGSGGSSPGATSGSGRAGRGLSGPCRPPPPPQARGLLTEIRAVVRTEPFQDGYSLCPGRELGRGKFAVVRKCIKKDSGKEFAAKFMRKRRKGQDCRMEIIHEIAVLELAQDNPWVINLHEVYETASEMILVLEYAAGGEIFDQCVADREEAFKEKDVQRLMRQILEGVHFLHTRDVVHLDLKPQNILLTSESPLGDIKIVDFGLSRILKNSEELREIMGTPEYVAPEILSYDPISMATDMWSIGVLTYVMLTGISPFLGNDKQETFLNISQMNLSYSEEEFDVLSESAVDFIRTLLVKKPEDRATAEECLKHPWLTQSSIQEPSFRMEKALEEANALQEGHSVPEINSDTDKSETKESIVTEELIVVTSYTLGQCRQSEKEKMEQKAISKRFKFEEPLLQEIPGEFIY

SLK = SLK (Homo sapiens, UniProt Q9H2G2)
STLK3 = STLK3 (Homo sapiens, UniProt Q9UEW8)
TLK1 = target: T2, TLK1 (Homo sapiens, UniProt Q9UKI8)
T2 sequence (Q9UKI8 1-766): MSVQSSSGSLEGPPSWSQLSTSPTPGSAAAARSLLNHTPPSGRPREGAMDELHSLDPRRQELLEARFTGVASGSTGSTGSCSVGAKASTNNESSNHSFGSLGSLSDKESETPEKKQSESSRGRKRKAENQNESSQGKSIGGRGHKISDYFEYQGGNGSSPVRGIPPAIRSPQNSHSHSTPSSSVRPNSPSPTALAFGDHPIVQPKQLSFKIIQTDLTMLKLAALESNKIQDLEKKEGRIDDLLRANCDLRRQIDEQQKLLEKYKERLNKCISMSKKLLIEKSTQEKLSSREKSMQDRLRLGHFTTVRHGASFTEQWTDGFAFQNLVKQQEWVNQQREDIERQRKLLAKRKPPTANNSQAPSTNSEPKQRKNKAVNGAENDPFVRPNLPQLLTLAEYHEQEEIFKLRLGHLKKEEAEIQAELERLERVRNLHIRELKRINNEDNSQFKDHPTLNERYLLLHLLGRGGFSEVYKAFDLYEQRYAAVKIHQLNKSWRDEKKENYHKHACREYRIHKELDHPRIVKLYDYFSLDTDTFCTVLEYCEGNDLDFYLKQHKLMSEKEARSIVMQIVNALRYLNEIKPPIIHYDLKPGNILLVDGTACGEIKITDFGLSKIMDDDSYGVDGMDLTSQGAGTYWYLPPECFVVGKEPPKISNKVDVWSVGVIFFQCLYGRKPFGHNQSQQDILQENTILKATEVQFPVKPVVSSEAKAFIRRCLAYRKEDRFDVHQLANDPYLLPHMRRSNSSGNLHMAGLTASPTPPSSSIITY

VRK1 = target: T3, VRK1 (Homo sapiens, UniProt Q99986)
T3 sequence (Q99986 1-396): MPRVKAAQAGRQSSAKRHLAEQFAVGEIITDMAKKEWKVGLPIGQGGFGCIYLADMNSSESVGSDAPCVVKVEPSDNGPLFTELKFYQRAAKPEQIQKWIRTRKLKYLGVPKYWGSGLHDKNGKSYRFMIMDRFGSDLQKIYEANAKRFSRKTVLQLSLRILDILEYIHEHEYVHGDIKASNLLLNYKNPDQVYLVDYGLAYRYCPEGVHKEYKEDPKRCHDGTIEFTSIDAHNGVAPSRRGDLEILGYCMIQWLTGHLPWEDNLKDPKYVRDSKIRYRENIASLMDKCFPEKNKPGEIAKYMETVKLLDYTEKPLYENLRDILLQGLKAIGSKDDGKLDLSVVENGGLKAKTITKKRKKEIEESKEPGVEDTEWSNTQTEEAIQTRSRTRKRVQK

Wnk1 = Wnk1 (Homo sapiens, UniProt Q9H4A3)
MST2 = target: T4, MST2 (Homo sapiens, UniProt Q13188)
T4 sequence (Q13188 1-491): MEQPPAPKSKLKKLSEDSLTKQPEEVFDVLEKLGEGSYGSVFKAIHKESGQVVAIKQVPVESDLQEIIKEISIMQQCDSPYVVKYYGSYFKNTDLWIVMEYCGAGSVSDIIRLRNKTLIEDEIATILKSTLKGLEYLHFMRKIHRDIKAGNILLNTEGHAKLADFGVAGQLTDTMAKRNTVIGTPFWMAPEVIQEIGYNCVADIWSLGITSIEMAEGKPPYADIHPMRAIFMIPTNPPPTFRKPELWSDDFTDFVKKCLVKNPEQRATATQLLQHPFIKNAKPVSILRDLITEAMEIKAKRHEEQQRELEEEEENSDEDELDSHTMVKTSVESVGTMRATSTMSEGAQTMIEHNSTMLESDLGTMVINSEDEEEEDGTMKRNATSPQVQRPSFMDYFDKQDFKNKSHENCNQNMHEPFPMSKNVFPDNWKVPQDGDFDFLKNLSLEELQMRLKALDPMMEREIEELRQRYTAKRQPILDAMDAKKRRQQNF

MST3 = MST3 (Homo sapiens, UniProt Q9Y6E0)
MST3, sequence (Q9Y6E0 whole entry): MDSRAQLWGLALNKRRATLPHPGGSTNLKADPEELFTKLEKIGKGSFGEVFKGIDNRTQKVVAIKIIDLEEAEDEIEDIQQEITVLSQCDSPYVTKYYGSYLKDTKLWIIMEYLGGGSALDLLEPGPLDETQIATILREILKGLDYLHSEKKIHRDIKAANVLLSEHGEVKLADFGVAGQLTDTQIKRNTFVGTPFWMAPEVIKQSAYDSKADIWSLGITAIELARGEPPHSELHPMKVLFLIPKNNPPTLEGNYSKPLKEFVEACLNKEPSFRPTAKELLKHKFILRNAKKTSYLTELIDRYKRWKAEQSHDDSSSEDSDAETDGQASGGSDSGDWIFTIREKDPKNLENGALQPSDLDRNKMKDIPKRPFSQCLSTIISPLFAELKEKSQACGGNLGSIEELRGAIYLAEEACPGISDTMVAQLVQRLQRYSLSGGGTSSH

Wnk1, sequence (Q9H4A3 whole entry): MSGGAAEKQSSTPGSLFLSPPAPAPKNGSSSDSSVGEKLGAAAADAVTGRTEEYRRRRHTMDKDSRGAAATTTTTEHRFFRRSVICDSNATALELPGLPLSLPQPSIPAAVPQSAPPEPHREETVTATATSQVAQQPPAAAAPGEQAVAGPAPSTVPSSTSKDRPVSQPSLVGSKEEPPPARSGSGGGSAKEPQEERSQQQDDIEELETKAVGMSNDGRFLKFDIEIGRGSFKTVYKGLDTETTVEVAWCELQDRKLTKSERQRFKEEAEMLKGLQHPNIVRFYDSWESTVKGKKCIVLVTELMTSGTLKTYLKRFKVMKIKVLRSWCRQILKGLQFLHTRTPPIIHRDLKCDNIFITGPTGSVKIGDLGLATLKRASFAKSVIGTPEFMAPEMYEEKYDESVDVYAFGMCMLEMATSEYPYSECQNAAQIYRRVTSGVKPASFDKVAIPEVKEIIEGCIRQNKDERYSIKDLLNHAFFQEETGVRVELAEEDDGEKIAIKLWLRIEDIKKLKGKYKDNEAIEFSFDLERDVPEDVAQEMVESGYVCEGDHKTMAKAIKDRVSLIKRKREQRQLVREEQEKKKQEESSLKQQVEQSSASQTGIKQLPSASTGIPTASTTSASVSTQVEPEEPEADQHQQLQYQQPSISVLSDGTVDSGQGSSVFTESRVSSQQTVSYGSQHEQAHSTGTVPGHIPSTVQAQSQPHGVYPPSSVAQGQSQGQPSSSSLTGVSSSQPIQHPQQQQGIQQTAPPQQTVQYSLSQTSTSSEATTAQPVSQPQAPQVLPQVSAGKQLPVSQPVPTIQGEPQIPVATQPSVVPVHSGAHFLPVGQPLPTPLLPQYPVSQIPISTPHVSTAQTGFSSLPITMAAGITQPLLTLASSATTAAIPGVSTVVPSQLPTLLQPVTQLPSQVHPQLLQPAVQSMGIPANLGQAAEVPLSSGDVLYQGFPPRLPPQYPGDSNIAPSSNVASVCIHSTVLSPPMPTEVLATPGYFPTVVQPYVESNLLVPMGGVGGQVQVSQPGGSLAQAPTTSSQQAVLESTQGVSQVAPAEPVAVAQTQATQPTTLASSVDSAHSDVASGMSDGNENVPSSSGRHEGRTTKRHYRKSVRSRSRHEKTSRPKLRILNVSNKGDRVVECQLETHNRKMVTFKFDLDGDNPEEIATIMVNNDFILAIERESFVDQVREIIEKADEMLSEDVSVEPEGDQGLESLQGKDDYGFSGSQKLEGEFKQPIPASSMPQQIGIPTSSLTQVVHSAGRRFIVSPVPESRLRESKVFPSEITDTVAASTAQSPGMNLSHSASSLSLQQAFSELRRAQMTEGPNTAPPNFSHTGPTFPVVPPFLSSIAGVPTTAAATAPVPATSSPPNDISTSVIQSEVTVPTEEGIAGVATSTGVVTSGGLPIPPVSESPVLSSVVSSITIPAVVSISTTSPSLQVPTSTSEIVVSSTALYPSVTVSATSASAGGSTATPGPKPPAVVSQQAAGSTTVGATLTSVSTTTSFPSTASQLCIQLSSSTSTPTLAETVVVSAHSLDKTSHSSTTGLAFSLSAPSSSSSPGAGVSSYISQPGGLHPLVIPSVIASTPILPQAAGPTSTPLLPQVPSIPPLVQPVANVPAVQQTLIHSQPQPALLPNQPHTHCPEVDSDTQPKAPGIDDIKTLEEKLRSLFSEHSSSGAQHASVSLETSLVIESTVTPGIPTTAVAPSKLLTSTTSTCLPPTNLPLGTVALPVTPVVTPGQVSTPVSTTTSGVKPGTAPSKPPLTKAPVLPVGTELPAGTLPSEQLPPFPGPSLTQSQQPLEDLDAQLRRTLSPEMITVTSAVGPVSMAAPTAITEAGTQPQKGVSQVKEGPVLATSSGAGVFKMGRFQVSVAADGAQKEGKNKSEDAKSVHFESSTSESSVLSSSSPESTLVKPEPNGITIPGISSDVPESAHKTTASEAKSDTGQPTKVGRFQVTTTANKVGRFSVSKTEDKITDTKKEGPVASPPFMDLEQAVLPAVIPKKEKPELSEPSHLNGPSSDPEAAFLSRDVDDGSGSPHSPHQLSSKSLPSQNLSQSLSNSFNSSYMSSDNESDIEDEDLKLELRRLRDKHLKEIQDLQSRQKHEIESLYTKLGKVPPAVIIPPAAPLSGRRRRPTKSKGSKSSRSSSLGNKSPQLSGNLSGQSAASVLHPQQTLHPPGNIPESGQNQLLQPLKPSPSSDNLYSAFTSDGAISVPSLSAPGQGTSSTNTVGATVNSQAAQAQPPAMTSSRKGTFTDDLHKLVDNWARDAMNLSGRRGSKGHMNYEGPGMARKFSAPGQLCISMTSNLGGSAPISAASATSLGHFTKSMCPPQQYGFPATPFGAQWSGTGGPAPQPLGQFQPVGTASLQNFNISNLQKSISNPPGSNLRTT
SLK, sequence (Q9H2G2 whole entry): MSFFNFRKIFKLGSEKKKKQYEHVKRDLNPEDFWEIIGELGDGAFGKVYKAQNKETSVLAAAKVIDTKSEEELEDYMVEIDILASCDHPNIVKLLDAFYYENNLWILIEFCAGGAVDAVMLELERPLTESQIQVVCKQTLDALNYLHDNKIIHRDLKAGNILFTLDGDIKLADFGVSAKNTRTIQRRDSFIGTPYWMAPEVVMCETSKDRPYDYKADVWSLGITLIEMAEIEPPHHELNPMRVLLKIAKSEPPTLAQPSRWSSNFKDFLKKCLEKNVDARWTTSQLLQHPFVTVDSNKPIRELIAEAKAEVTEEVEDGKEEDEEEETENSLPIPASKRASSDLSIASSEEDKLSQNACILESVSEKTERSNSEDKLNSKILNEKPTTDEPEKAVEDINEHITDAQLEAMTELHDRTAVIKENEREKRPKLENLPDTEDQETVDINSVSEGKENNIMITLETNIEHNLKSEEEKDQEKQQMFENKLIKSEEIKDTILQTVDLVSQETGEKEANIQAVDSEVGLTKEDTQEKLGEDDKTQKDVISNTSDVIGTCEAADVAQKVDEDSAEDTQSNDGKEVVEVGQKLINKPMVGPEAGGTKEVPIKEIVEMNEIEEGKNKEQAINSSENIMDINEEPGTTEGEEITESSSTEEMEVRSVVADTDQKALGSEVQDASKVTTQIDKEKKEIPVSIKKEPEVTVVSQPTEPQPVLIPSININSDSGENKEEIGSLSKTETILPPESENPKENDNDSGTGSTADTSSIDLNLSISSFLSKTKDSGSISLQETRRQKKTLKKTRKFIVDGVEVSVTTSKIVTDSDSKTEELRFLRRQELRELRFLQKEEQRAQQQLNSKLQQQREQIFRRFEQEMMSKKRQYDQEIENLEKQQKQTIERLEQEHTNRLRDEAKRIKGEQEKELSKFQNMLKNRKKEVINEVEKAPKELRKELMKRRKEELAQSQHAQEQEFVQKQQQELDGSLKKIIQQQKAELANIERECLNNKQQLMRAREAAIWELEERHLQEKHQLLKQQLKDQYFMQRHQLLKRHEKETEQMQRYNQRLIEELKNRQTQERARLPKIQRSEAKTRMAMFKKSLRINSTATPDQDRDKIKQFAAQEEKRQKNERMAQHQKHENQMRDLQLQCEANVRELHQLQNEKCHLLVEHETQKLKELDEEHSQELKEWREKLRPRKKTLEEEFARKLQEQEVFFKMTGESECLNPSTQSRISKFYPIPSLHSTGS

## CNc1ncc2cc(-c3ccc(-c4cccc(C)n4)cc3Cl)c(=O)n(CCC3CCNCC3)c2n1 [compound 22, 6-(2-Chloro-4-(6-methylpyridin-2-yl)phenyl)-2-(methylamino)-8-(2-(piperidin-4-yl)ethyl)pyrido[2,3-d]pyrimidin-7(8H)-one]
DRAK1
  ΔTm 22: -1.3 °C
SLK
  ΔTm 22: 3.9 °C
STLK3
  ΔTm 22: -3.0 °C
TLK1
  ΔTm 22: 0.2 °C
VRK1
  ΔTm 22: -0.7 °C
Wnk1
  ΔTm 22: 1.5 °C

## CNc1ncc2cc(-c3ccc(-c4cccc(C)n4)cc3Cl)c(=O)n(C[C@H]3CC[C@H](N)CC3)c2n1 [compound 23, 23]
DRAK1
  ΔTm 23: -1.0 °C
SLK
  ΔTm 23: 8.3 °C
STLK3
  ΔTm 23: 3.3 °C
TLK1
  ΔTm 23: 0.6 °C
VRK1
  ΔTm 23: 0.5 °C
Wnk1
  ΔTm 23: 2.1 °C

## Cc1cccc(-c2ccc(-c3cc4cnc(NC(CO)CO)nc4n(CCCCN)c3=O)c(Cl)c2)n1 [compound 24, 8-(4-Aminobutyl)-6-(2-chloro-4-(6-methylpyridin-2-yl)phenyl)-2-((1,3-dihydroxypropan-2-yl)amino)pyrido[2,3-d]pyrimidin-7(8H)-one]
DRAK1
  ΔTm MR24 (24): 0.0 °C
SLK
  ΔTm MR24 (24): 1.9 °C
STLK3
  ΔTm MR24 (24): 9.1 °C
TLK1
  ΔTm MR24 (24): -1.8 °C
VRK1
  ΔTm MR24 (24): 0.4 °C
Wnk1
  ΔTm MR24 (24): 0.2 °C
MST2
  dTm MST2: 4.6 °C
MST3
  dTm MST3: 10.6 °C

## Cc1cccc(-c2ccc(-c3cc4cnc(NCCCc5ccc(N)cc5)nc4n(CCCCN)c3=O)c(Cl)c2)n1 [compound 25, 8-(4-Aminobutyl)-2-((3-(4-aminophenyl)propyl)amino)-6-(2-chloro-4-(6-methylpyridin-2-yl)phenyl)pyrido[2,3-d]pyrimidin-7(8H)-one]
DRAK1
  ΔTm 25: 0.9 °C
SLK
  ΔTm 25: 5.0 °C
STLK3
  ΔTm 25: 13.0 °C
TLK1
  ΔTm 25: -0.9 °C
VRK1
  ΔTm 25: 0.6 °C
Wnk1
  ΔTm 25: 2.7 °C
MST2
  dTm MST2: 7.2 °C
MST3
  dTm MST3: 12.2 °C

## Cc1cccc(-c2ccc(-c3cc4cnc(NCCCN5CCOCC5)nc4n(CCCCN)c3=O)c(Cl)c2)n1 [compound 26, MR26]
DRAK1
  ΔTm MR26 (26): 0.2 °C
SLK
  ΔTm MR26 (26): 2.3 °C
STLK3
  ΔTm MR26 (26): 10.4 °C
TLK1
  ΔTm MR26 (26): -1.6 °C
VRK1
  ΔTm MR26 (26): 0.4 °C
Wnk1
  ΔTm MR26 (26): 1.0 °C
MST2
  dTm MST2: 5.9 °C
MST3
  dTm MST3: 11.6 °C
